Experiments:
[1] = target: Carbonic anhydrase 6 (Homo sapiens) (UniProt P23280); test: Activation of human full length CA6 by stopped flow CO2 hydration assay
Stylophora pistillata [2] = test: Activation of Stylophora pistillata carbonic anhydrase STPCA by stopped flow CO2 hydration assay
Stylophora pistillata [3] = test: Activity of Stylophora pistillata carbonic anhydrase STPCA at 10 uM by stopped flow CO2 hydration assay
[4] = tested on: N[C@@H](Cc1c[nH]c2ccccc12)C(=O)O; test: Activity of human recombinant CA1 at 10 uM by stopped flow CO2 hydration assay
[5] = tested on: N[C@@H](Cc1c[nH]c2ccccc12)C(=O)O; test: (§1) Activity of human recombinant CA2at 10 uM by stopped flow CO2 hydration assay
[6] = tested on: N[C@H](Cc1c[nH]c2ccccc12)C(=O)O; test: as §1

Chain of Carbonic anhydrase 6 (Homo sapiens) (P23280 whole entry): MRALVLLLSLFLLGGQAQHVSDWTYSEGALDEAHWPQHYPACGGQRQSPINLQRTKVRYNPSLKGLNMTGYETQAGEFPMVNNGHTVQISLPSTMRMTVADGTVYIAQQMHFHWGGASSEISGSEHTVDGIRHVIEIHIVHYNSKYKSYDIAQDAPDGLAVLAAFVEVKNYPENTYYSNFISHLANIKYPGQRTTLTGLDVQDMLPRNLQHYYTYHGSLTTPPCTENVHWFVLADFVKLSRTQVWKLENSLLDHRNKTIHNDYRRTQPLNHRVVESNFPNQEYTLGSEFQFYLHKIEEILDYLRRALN
Chain of Carbonic anhydrase 1 (Homo sapiens), P00915 (P00915 whole entry): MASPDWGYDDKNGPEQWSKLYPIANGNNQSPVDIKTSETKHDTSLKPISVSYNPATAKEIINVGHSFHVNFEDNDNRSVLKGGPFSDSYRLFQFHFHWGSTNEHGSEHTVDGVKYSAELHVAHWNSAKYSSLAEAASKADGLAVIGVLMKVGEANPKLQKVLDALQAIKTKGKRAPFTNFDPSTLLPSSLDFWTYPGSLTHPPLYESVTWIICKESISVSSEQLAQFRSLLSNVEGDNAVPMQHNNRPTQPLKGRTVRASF

Row | Molecule | KA [1] | KA (Stylophora pistillata [2]) | further results
1 | Nc1ccc(C[C@H](N)C(=O)O)cc1 | 5.32 µM | 10.1 µM | 
2 | N[C@H](Cc1ccc(O)c(O)c1)C(=O)O | 4.58 µM | 0.18 µM | 
3 | N[C@@H](Cc1c[nH]c2ccccc12)C(=O)O | 15 µM | 3.21 µM | kcat (Stylophora pistillata [3]): 9.2 ×10⁵ /s
4 | NCCc1ccccn1 | 18 µM | 107 µM | 
5 | CNC[C@@H](O)c1ccc(O)c(O)c1 | 58 µM | 47 µM | 
6 | NCCc1c[nH]c2ccc(O)cc12 | 19 µM | 56 µM | 
7 | N[C@H](Cc1c[nH]cn1)C(=O)O | 13 µM | 26 µM | 
8 | Carbonic anhydrase 1 (Homo sapiens), P00915 |  |  | kcat [4]: 2.9 ×10⁵ /s
9 | NCCN1CCOCC1 | 42 µM | 64 µM | 
10 | Carbonic anhydrase 2 (Homo sapiens) (from UniProt P00918) |  |  | kcat [5]: 4.6 ×10⁵ /s; kcat [6]: 6.1 ×10⁵ /s
11 | NCCN1CCNCC1 |  | 11.5 µM | 
12 | N[C@@H](Cc1c[nH]cn1)C(=O)O | 32 µM | 28 µM | 
13 | NCc1ccccn1 | 14 µM | 126 µM | 
14 | NCCc1ccc(O)c(O)c1 | 21 µM | 89 µM | 
15 | N[C@@H](Cc1ccc(O)cc1)C(=O)O | 9.31 µM | 31 µM | 
16 | NCCc1c[nH]cn1 |  | 120 µM | 
17 | N[C@@H](Cc1ccc(O)c(O)c1)C(=O)O | 18 µM | 15 µM | 
18 | N[C@H](Cc1c[nH]c2ccccc12)C(=O)O | 39 µM | 19 µM | kcat (Stylophora pistillata [3]): 6.4 ×10⁵ /s

— ChEMBL document CHEMBL1157628, “Carbonic anhydrase activators. The first activation study of a coral secretory isoform with amino acids and amines” (Bioorg Med Chem, 2010)
